{
  "source": "patent US4248863A",
  "about": "“Antibiotics saframycins A, B, C, D and E and process for producing the same” (priority 1977, dated 1981)",
  "key": {"[1]": {"tested_on": "Bacillus subtilis", "assay": "Antimicrobial spectrum, MIC (Table 4)", "assay_type": "cell-based", "conditions": "Bacillus subtilis; 1% glucose nutrient agar, 37° C., 24 or 48 hours; read-out: MIC"}, "[2]": {"tested_on": "Shigella dysenteriae Shiga", "assay": "microbe, parasite or virus in culture", "assay_type": "cell-based", "conditions": "Shigella dysenteriae"}, "[3]": {"tested_on": "Streptococcus pyogenes 090R", "assay": "Antimicrobial spectrum, MIC (Table 4)", "assay_type": "cell-based", "conditions": "Streptococcus pyogenes, 090R; blood agar, 37° C., 24 or 48 hours; read-out: MIC"}, "[4]": {"assay": "Toxicity in mice", "conditions": "mouse, in vivo"}, "[5]": {"tested_on": "Escherichia coli", "assay": "Antimicrobial spectrum, MIC (Table 4)", "assay_type": "cell-based", "conditions": "Escherichia coli; 1% glucose nutrient agar, 37° C., 24 or 48 hours; read-out: MIC"}, "[6]": {"tested_on": "Trichophyton mentagrophytes", "assay": "Antimicrobial spectrum, MIC (Table 4)", "conditions": "Trichophyton mentagrophytes, 72 h"}, "[7]": {"tested_on": "Rhodotorula glutinis", "assay": "Antimicrobial spectrum, MIC (Table 4)", "conditions": "Rhodotorula glutinis, 48 h"}, "[8]": {"tested_on": "Bacillus cereus", "assay": "Antimicrobial spectrum, MIC (Table 4)", "assay_type": "cell-based", "conditions": "Bacillus cereus; 1% glucose nutrient agar, 37° C., 24 or 48 hours; read-out: MIC"}, "[9]": {"tested_on": "Staphylococcus aureus 209P", "assay": "Antimicrobial spectrum, MIC (Table 4)", "assay_type": "cell-based", "conditions": "Staphylococcus aureus, 209P; 1% glucose nutrient agar, 37° C., 24 or 48 hours; read-out: MIC"}, "[10]": {"tested_on": "Nocardia asteroides", "assay": "Antimicrobial spectrum, MIC (Table 4)", "assay_type": "cell-based", "conditions": "Nocardia asteroides; 37° C., 24 or 48 hours; read-out: MIC"}, "[11]": {"tested_on": "Candida albicans", "assay": "Antimicrobial spectrum, MIC (Table 4)", "conditions": "Candida albicans, 48 h"}, "[12]": {"tested_on": "Corynebacterium xerosis", "assay": "Antimicrobial spectrum, MIC (Table 4)", "assay_type": "cell-based", "conditions": "Corynebacterium xerosis; 1% glucose nutrient agar, 37° C., 24 or 48 hours; read-out: MIC"}, "[13]": {"tested_on": "Klebsiella pneumoniae", "assay": "Antimicrobial spectrum, MIC (Table 4)", "assay_type": "cell-based", "conditions": "Klebsiella pneumoniae; 1% glucose nutrient agar, 37° C., 24 or 48 hours; read-out: MIC"}, "[14]": {"tested_on": "Staphylococcus citreus", "assay": "Antimicrobial spectrum, MIC (Table 4)", "assay_type": "cell-based", "conditions": "Staphylococcus; 1% glucose nutrient agar, 37° C., 24 or 48 hours; read-out: MIC"}, "[15]": {"tested_on": "Streptococcus faecalis", "assay": "Antimicrobial spectrum, MIC (Table 4)", "assay_type": "cell-based", "conditions": "Enterococcus faecalis; 1% glucose nutrient agar, 37° C., 24 or 48 hours; read-out: MIC"}, "[16]": {"tested_on": "Saccharomyces cerevisiae", "assay": "Antimicrobial spectrum, MIC (Table 4)", "conditions": "Saccharomyces cerevisiae, 48 h"}, "[17]": {"tested_on": "uterine cervical carcinoma", "assay": "Effect against human tumors heterotransplanted to nude mice", "assay_type": "in vivo, human tumor in nude mice", "conditions": "human tumor heterotransplanted to nude mice"}, "[18]": {"tested_on": "Corynebacterium dephtheriae", "assay": "Antimicrobial spectrum, MIC (Table 4)", "assay_type": "cell-based", "conditions": "Corynebacterium; 1% glucose nutrient agar, 37° C., 24 or 48 hours; read-out: MIC"}, "[19]": {"tested_on": "Staphylococcus aureus Smith", "assay": "Antimicrobial spectrum, MIC (Table 4)", "assay_type": "cell-based", "conditions": "Staphylococcus aureus; 1% glucose nutrient agar, 37° C., 24 or 48 hours; read-out: MIC"}, "[20]": {"tested_on": "Aspergillus oryzae", "assay": "Antimicrobial spectrum, MIC (Table 4)", "conditions": "Aspergillus oryzae, 48 h"}, "[21]": {"tested_on": "Mycobacterium phlei", "assay": "Antimicrobial spectrum, MIC (Table 4)", "assay_type": "cell-based", "conditions": "Mycolicibacterium phlei; 3% glycerol nutrient agar for acid-fast bacteria, 37° C., 24 or 48 hours; read-out: MIC"}, "[22]": {"tested_on": "Aspergillus niger", "assay": "Antimicrobial spectrum, MIC (Table 4)", "conditions": "Aspergillus niger, 48 h"}, "[23]": {"tested_on": "Mucor mucedo", "assay": "Antimicrobial spectrum, MIC (Table 4)", "conditions": "Mucor mucedo, 48 h"}, "[24]": {"tested_on": "Mycobacterium sp. 607", "assay": "Antimicrobial spectrum, MIC (Table 4)", "assay_type": "cell-based", "conditions": "Mycobacterium, SP.607; 3% glycerol nutrient agar for acid-fast bacteria, 37° C., 24 or 48 hours; read-out: MIC"}, "[25]": {"tested_on": "stomach carcinoma", "assay": "Effect against human tumors heterotransplanted to nude mice", "assay_type": "in vivo, human tumor in nude mice", "conditions": "human tumor heterotransplanted to nude mice"}, "[26]": {"tested_on": "Serratia marcescens", "assay": "Antimicrobial spectrum, MIC (Table 4)", "assay_type": "cell-based", "conditions": "Serratia marcescens; 1% glucose nutrient agar, 37° C., 24 or 48 hours; read-out: MIC"}, "[27]": {"tested_on": "Penicillium glaucum", "assay": "Antimicrobial spectrum, MIC (Table 4)", "conditions": "Penicillium, 48 h"}, "[28]": {"tested_on": "Micrococcus luteus", "assay": "Antimicrobial spectrum, MIC (Table 4)", "assay_type": "cell-based", "conditions": "Micrococcus luteus; 1% glucose nutrient agar, 37° C., 24 or 48 hours; read-out: MIC"}, "[29]": {"tested_on": "Staphylococcus albus", "assay": "Antimicrobial spectrum, MIC (Table 4)", "assay_type": "cell-based", "conditions": "Staphylococcus; 1% glucose nutrient agar, 37° C., 24 or 48 hours; read-out: MIC"}, "[30]": {"tested_on": "Pseudomonas aeruginosa", "assay": "Antimicrobial spectrum, MIC (Table 4)", "assay_type": "cell-based", "conditions": "Pseudomonas aeruginosa; 1% glucose nutrient agar, 37° C., 24 or 48 hours; read-out: MIC"}, "[31]": {"tested_on": "Staphylococcus salivarius", "assay": "Antimicrobial spectrum, MIC (Table 4)", "assay_type": "cell-based", "conditions": "Staphylococcus; 1% glucose nutrient agar, 37° C., 24 or 48 hours; read-out: MIC"}, "[32]": {"tested_on": "Salmonella typhimurium", "assay": "Antimicrobial spectrum, MIC (Table 4)", "assay_type": "cell-based", "conditions": "Salmonella enterica, TYPHIMURIUM; 1% glucose nutrient agar, 37° C., 24 or 48 hours; read-out: MIC"}, "[33]": {"tested_on": "Ehrlich ascites tumor", "assay": "Activity against Ehrlich ascites tumor in DDY mice", "assay_type": "in vivo", "conditions": "1×10^5 cells, initiated 24 hours after implantation, 4 days"}, "[34]": {"tested_on": "Streptococcus pyogenes", "assay": "Antimicrobial spectrum, MIC (Table 4)", "assay_type": "cell-based", "conditions": "Streptococcus pyogenes; blood agar, 37° C., 24 or 48 hours; read-out: MIC"}, "[35]": {"tested_on": "Brucella abortus", "assay": "microbe, parasite or virus in culture", "assay_type": "cell-based", "conditions": "Brucella abortus"}, "[36]": {"tested_on": "Mycobacterium avium", "assay": "Antimicrobial spectrum, MIC (Table 4)", "assay_type": "cell-based", "conditions": "Mycobacterium avium; 3% glycerol nutrient agar for acid-fast bacteria, 37° C., 24 or 48 hours; read-out: MIC"}, "[37]": {"tested_on": "mouse lymphocytic leukemia L1210", "assay": "Effect on mouse lymphocytic leukemia L1210 in vivo", "conditions": "DBF1 mice, 1×10^5 cells intraperitoneal; 1.5 mg/kg daily for 2 days intraperitoneal, started 3 hours after implantation", "description": "When DDY mice were implanted with 1×10^5 cells of Ehrlich ascites tumor and daily intraperitoneal treatment of saframycin A at a dose of 0.5 mg/kg was initiated 24 hours after tumor implantation for 4 days, 30% of mice were cured and survived more than 30 days. With a dose of 1.0 mg/kg, 60% of mice was cured. The effects of saframycin A by intraperitoneal treatment on mouse lymphocytic leukemia L1210 and lymphoid leukemia P388 were studied with DBF1 mice. […] With P388 tumor, the inoculum size of 1×10^6 cells was employed and the treatment was initiated after 24 hours. Saframycin A at a daily dose of 0.75 mg/kg for 10 days produced T/C of 219%. The effect of saframycin A was then studied against human tumors, two lines of uterine cervical carcinoma, melanoma, oat cell carcinoma and stomach carcinoma, heterotransplanted to nude mice."}},
  "data": [
    {"smiles": "COC1=C(C)C(=O)C2=C(C1=O)C1C3CC4=C(C(=O)C(OC)=C(C)C4=O)C(CNC(=O)C(C)=O)N3C(C#N)C(C2)N1C", "note": "(stereo not drawn) [saframycin A]", "values": [
      {"measurement": "MIC", "setting": "[1]", "result": 0.1, "unit": "µg/mL"},
      {"measurement": "MIC", "setting": "[2]", "result": 25, "unit": "µg/mL"},
      {"measurement": "MIC", "setting": "[3]", "result": 6.25, "unit": "µg/mL"},
      {"measurement": "LD50", "setting": "[4]; ip", "result": 40, "unit": "mg/kg"},
      {"measurement": "LD50", "setting": "[4]; iv", "result": 12, "unit": "mg/kg"},
      {"measurement": "MIC", "setting": "[5]", "result": 50, "unit": "µg/mL"},
      {"measurement": "MIC", "setting": "[6]", "result": "> 100", "unit": "µg/mL"},
      {"measurement": "MIC", "setting": "[7]", "result": "> 100", "unit": "µg/mL"},
      {"measurement": "MIC", "setting": "[8]", "result": 12.5, "unit": "µg/mL"},
      {"measurement": "MIC", "setting": "[9]", "result": 0.1, "unit": "µg/mL"},
      {"measurement": "MIC", "setting": "[10]", "result": 6.25, "unit": "µg/mL"},
      {"measurement": "MIC", "setting": "[11]", "result": "> 100", "unit": "µg/mL"},
      {"measurement": "MIC", "setting": "[12]", "result": "< 0.003", "unit": "µg/mL"},
      {"measurement": "MIC", "setting": "[13]", "result": 6.25, "unit": "µg/mL"},
      {"measurement": "MIC", "setting": "[14]", "result": 0.1, "unit": "µg/mL"},
      {"measurement": "MIC", "setting": "[15]", "result": 6.25, "unit": "µg/mL"},
      {"measurement": "MIC", "setting": "[16]", "result": "> 100", "unit": "µg/mL"},
      {"measurement": "activity against cervical carcinoma", "setting": "[17]", "result": "selectively active on cervical carcinoma and stomach carcinoma producing the inhibition of tumor growth and significant histological changes in tumor tissue"},
      {"measurement": "MIC", "setting": "[18]", "result": "< 0.003", "unit": "µg/mL"},
      {"measurement": "MIC", "setting": "[19]", "result": 0.05, "unit": "µg/mL"},
      {"measurement": "MIC", "setting": "[20]", "result": "> 100", "unit": "µg/mL"},
      {"measurement": "MIC", "setting": "[21]", "result": 25, "unit": "µg/mL"},
      {"measurement": "MIC", "setting": "[22]", "result": "> 100", "unit": "µg/mL"},
      {"measurement": "MIC", "setting": "[23]", "result": "> 100", "unit": "µg/mL"},
      {"measurement": "MIC", "setting": "[24]", "result": 12.5, "unit": "µg/mL"},
      {"measurement": "activity against stomach carcinoma", "setting": "[25]", "result": "selectively active on cervical carcinoma and stomach carcinoma producing the inhibition of tumor growth and significant histological changes in tumor tissue"},
      {"measurement": "MIC", "setting": "[26]", "result": "> 100", "unit": "µg/mL"},
      {"measurement": "MIC", "setting": "[27]", "result": 50, "unit": "µg/mL"},
      {"measurement": "MIC", "setting": "[28]", "result": 0.05, "unit": "µg/mL"},
      {"measurement": "MIC", "setting": "[29]", "result": 0.1, "unit": "µg/mL"},
      {"measurement": "MIC", "setting": "[30]", "result": "> 100", "unit": "µg/mL"},
      {"measurement": "MIC", "setting": "[31]", "result": 6.25, "unit": "µg/mL"},
      {"measurement": "MIC", "setting": "[32]", "result": 100, "unit": "µg/mL"},
      {"measurement": "mice cured and survived more than 30 days", "setting": "[33]; 0.5 mg/kg daily intraperitoneal", "result": 30, "unit": "%"},
      {"measurement": "mice cured", "setting": "[33]; 1.0 mg/kg daily intraperitoneal", "result": 60, "unit": "%"},
      {"measurement": "MIC", "setting": "[34]", "result": 0.78, "unit": "µg/mL"},
      {"measurement": "MIC", "setting": "[35]", "result": 6.25, "unit": "µg/mL"},
      {"measurement": "MIC", "setting": "[36]", "result": 12.5, "unit": "µg/mL"},
      {"measurement": "T/C (survival period of treated group over survival period of control group)", "setting": "[37]", "result": 183, "unit": "%"}
    ]}
  ]
}
